Experimental data: the NIST ThermoML archive (doi:10.1016/j.fluid.2007.08.008)
± gives the expanded uncertainty stated by the source.

Tests used:
[1] = refractive index (Na D-line) (dimensionless); conditions: 298.15 K; 101.33 kPa; Liquid; Standard Abbe refractometry
[2] = 298.15 K; 101.33 kPa; Liquid; Vibrating tube method

refractive index [1]	mass density [2]	Compound
1.3784 ± 0.0045	741.81 ± 13 kg/m3	CCCOCCC [dipropyl ether]
1.3836 ± 0.004	799.62 ± 0.14 kg/m3	CCCO [propan-1-ol]
1.4306 ± 0.004		OCCO [1,2-ethanediol]
1.3325 ± 0.004		O [water]
